Measurements reported in the NIST ThermoML archive (doi:10.1021/je400679k).
± gives the expanded uncertainty stated by the source.

Test: xn = mol fraction of the nth substance listed
Conditions: 101 kPa, Liquid, Vibrating tube method

CNCCCN [N-methyl-1,3-diaminopropane] + CN(CCO)CCO
mass density [kg/m3]
Conditions	x1 = 0.1001	x1 = 0.2003	x1 = 0.2999	x1 = 0.3997	x1 = 0.5	x1 = 0.5999	x1 = 0.7001	x1 = 0.8002	x1 = 0.9	x1 = 1
293.15 K	1026.93 ± 0.89	1012.7 ± 0.86	997.588 ± 0.84	981.393 ± 0.82	964.134 ± 0.8	944.646 ± 0.78	923.928 ± 0.76	900.759 ± 0.73	876.717 ± 0.71	851.605 ± 0.67
303.15 K	1019.31 ± 0.88	1005.01 ± 0.85	989.787 ± 0.83	973.417 ± 0.81	956.077 ± 0.79	936.426 ± 0.77	915.36 ± 0.74	892.077 ± 0.72	868.035 ± 0.7	842.69 ± 0.67
313.15 K	1011.66 ± 0.86	997.273 ± 0.84	981.94 ± 0.82	965.391 ± 0.8	947.946 ± 0.78	928.152 ± 0.76	907.016 ± 0.74	883.714 ± 0.71	859.287 ± 0.69	833.715 ± 0.66
323.15 K	1003.95 ± 0.85	989.479 ± 0.83	974.031 ± 0.81	957.394 ± 0.79	939.738 ± 0.77	919.85 ± 0.75	898.494 ± 0.73	874.972 ± 0.7	850.467 ± 0.68	824.673 ± 0.65
333.15 K	996.181 ± 0.83	981.607 ± 0.82	966.033 ± 0.8	949.272 ± 0.78	931.432 ± 0.76	911.414 ± 0.74	889.941 ± 0.72	866.238 ± 0.7	841.566 ± 0.67	815.559 ± 0.64
343.15 K	988.342 ± 0.83	973.656 ± 0.81	957.953 ± 0.79	941.042 ± 0.77	923.056 ± 0.75	902.895 ± 0.73	881.277 ± 0.71	857.422 ± 0.69	832.576 ± 0.66	806.37 ± 0.63
353.15 K	980.415 ± 0.82	965.631 ± 0.8	949.783 ± 0.78	932.732 ± 0.76	914.593 ± 0.74	894.29 ± 0.72	872.517 ± 0.7	848.523 ± 0.68	823.509 ± 0.66	797.093 ± 0.62
363.15 K	972.409 ± 0.81	957.499 ± 0.79	941.523 ± 0.77	924.324 ± 0.75	906.038 ± 0.73	885.584 ± 0.71	863.668 ± 0.69	839.559 ± 0.67	814.342 ± 0.65	787.723 ± 0.61

CNCCCN [N-methyl-1,3-diaminopropane] + O
mass density [kg/m3]
Conditions	283.15 K	293.15 K	303.15 K	313.15 K	323.15 K	333.15 K	343.15 K	353.15 K	363.15 K
x1 = 0.0051	998.237 ± 0.1	996.63 ± 0.11	993.985 ± 0.12	990.476 ± 0.14	986.217 ± 0.15	981.304 ± 0.15	975.769 ± 0.16	969.7 ± 0.17	963.045 ± 0.18
x1 = 0.02	994.774 ± 0.071	992.593 ± 0.087	989.479 ± 0.1	985.566 ± 0.12	980.949 ± 0.13	975.762 ± 0.14	969.886 ± 0.15	963.52 ± 0.16	956.663 ± 0.17
x1 = 0.04	992.84 ± 0.051	989.571 ± 0.068	985.557 ± 0.085	980.873 ± 0.1	975.589 ± 0.11	969.758 ± 0.13	963.394 ± 0.14	956.509 ± 0.15	949.281 ± 0.16
x1 = 0.0599	991.664 ± 0.045	987.189 ± 0.057	982.161 ± 0.072	976.614 ± 0.087	970.587 ± 0.1	964.115 ± 0.11	957.198 ± 0.12	949.885 ± 0.13	942.172 ± 0.14
x1 = 0.08	991.853 ± 0.048	986.2 ± 0.057	980.175 ± 0.07	973.774 ± 0.084	967.022 ± 0.096	959.923 ± 0.11	952.467 ± 0.12	944.681 ± 0.12	936.552 ± 0.13
x1 = 0.1001	990.982 ± 0.065	984.3 ± 0.075	977.4 ± 0.085	970.258 ± 0.094	962.871 ± 0.1	955.236 ± 0.11	947.339 ± 0.12	939.185 ± 0.12	930.768 ± 0.13
x1 = 0.1496	985.446 ± 0.09	977.467 ± 0.097	969.396 ± 0.1	961.197 ± 0.11	952.86 ± 0.12	944.358 ± 0.12	935.674 ± 0.13	926.784 ± 0.13	917.665 ± 0.14
x1 = 0.2001	975.602 ± 0.12	967.23 ± 0.12	958.776 ± 0.13	950.269 ± 0.13	941.571 ± 0.13	932.714 ± 0.14	923.678 ± 0.14	914.46 ± 0.14	905.046 ± 0.14
x1 = 0.2996	953.237 ± 0.16	944.826 ± 0.16	936.29 ± 0.16	927.601 ± 0.16	918.738 ± 0.16	909.696 ± 0.17	900.476 ± 0.17	891.074 ± 0.17	881.47 ± 0.17
x1 = 0.4001	932.582 ± 0.2	924.145 ± 0.2	915.578 ± 0.2	906.849 ± 0.2	897.972 ± 0.2	888.926 ± 0.2	879.715 ± 0.21	870.324 ± 0.21	860.741 ± 0.21
x1 = 0.4995	915.228 ± 0.26	906.757 ± 0.26	898.165 ± 0.26	889.428 ± 0.26	880.556 ± 0.26	871.523 ± 0.26	862.344 ± 0.26	852.997 ± 0.26	843.475 ± 0.26
x1 = 0.5998	900.588 ± 0.32	892.069 ± 0.32	883.427 ± 0.32	874.666 ± 0.32	865.773 ± 0.32	856.742 ± 0.32	847.577 ± 0.32	838.26 ± 0.31	828.782 ± 0.31
x1 = 0.6995	888.711 ± 0.4	880.119 ± 0.4	871.429 ± 0.39	862.629 ± 0.39	853.712 ± 0.39	844.674 ± 0.39	835.508 ± 0.38	826.212 ± 0.38	816.767 ± 0.38
x1 = 0.7976	879.041 ± 0.48	870.383 ± 0.48	861.635 ± 0.47	852.787 ± 0.47	843.839 ± 0.47	834.781 ± 0.46	825.611 ± 0.46	816.324 ± 0.45	806.909 ± 0.45
x1 = 0.901	869.652 ± 0.58	860.902 ± 0.58	852.078 ± 0.57	843.17 ± 0.56	834.181 ± 0.56	825.1 ± 0.55	815.925 ± 0.54	806.659 ± 0.54	797.262 ± 0.53
x1 = 1	860.459 ± 0.68	851.605 ± 0.67	842.69 ± 0.67	833.715 ± 0.66	824.673 ± 0.65	815.559 ± 0.64	806.37 ± 0.63	797.093 ± 0.62	787.723 ± 0.61
